In PubChem BioAssay (NCI):
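Protocol summary: plate cells (96-well), add compound at 5 concentrations, incubate 48 h, interpolate endpoints linearly. GI50 marks 50% less growth. Definition used: TGI = concentration required for complete inhibition of growth.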

Experiments:
Assay in all cases: NCI tumour cell line growth inhibition, 48 h
786-0 renal = system: 786-0 renal
CAKI-1 renal = system: CAKI-1 renal
HCT-116 colon = system: HCT-116 colon
HS 578T breast = system: HS 578T breast
MDA-MB-435 = system: MDA-MB-435
MOLT-4 leukemia = system: MOLT-4 leukemia
OVCAR-4 ovarian = system: OVCAR-4 ovarian
PC-3 prostate = system: PC-3 prostate
T-47D breast = system: T-47D breast
UACC-62 melanoma = system: UACC-62 melanoma

| SMILES | GI50 (786-0 renal) | TGI (786-0 renal) | GI50 (CAKI-1 renal) | TGI (CAKI-1 renal) | GI50 (HCT-116 colon) | TGI (HCT-116 colon) | GI50 (HS 578T breast) | TGI (HS 578T breast) | GI50 (MDA-MB-435) | TGI (MDA-MB-435) | GI50 (MOLT-4 leukemia) | TGI (MOLT-4 leukemia) | GI50 (OVCAR-4 ovarian) | TGI (OVCAR-4 ovarian) | GI50 (PC-3 prostate) | TGI (PC-3 prostate) | GI50 (T-47D breast) | TGI (T-47D breast) | GI50 (UACC-62 melanoma) | TGI (UACC-62 melanoma) |
| --- | --- | --- | --- | --- | --- | --- | --- | --- | --- | --- | --- | --- | --- | --- | --- | --- | --- | --- | --- | --- |
| CN1CCN(CCCCCN=c2cc3c(=O)n(CCCCCN4CCN(C)CC4)c(=O)c4c(NCCCCCN5CCN(C)CC5)cc5c(O)n(CCCCCN6CCN(C)CC6)c(=O)c2c5c4-3)CC1 | > 100 µM | > 100 µM | > 100 µM | > 100 µM | 3.31 µM | 17.3 µM | 2.64 µM | 6.86 µM | 2.7 µM | 8.73 µM | 4.85 µM | > 100 µM | 2.22 µM | 5.61 µM | 3.32 µM | 19.4 µM | 3.59 µM | 25.4 µM | 4.19 µM | 15.7 µM |
| Cc1cc(C)c(C2CNCc3cc4c(cc32)CNCC4c2c(C)cc(C)cc2C)c(C)c1 (centres undefined) | 2.34 µg/mL | 5.26 µg/mL | 4.22 µg/mL | 13.6 µg/mL | 2.38 µg/mL | 6.14 µg/mL | 3.43 µg/mL | 13.5 µg/mL | 1.88 µg/mL | 3.84 µg/mL | 2.95 µg/mL | 8.55 µg/mL | 2.48 µg/mL | 6.43 µg/mL | 5.67 µg/mL | 15.6 µg/mL | 2.68 µg/mL | 7.65 µg/mL | 6.7 µg/mL | 15.4 µg/mL |
| C[n+]1c2ccccc2nc2c(N)cc(N)cc21 | 5.43 µM | > 100 µM | 0.519 µM | 19 µM | 10.5 µM | 83.6 µM | 3.63 µM | 20.6 µM | 15.9 µM | 41.5 µM | 3 µM | 22.6 µM | 5.87 µM | > 100 µM | 21.3 µM | > 100 µM | 3.95 µM | 40.9 µM | 12.9 µM | 31.7 µM |
| CCCCNc1nc(NC2OCC(OC(C)=O)C(OC(C)=O)C2OC(C)=O)c(N=O)c(=O)n1C (centres undefined) | – | > 10 µM | – | > 10 µM | – | > 10 µM | – | > 10 µM | – | > 10 µM | – | > 10 µM | – | > 10 µM | – | > 10 µM | – | > 10 µM | – | > 10 µM |
| COc1cc(/C=C/c2ccc3c(Br)cc(Br)c(O)c3n2)ccc1O | 1.69 µM | 6.93 µM | 0.553 µM | 5.42 µM | 0.532 µM | 3.7 µM | 2.01 µM | 14.6 µM | 3.38 µM | 19.6 µM | 0.606 µM | 7.04 µM | 2.18 µM | 11.6 µM | 1.26 µM | 15.1 µM | 2.13 µM | 14.7 µM | 1.67 µM | 5.3 µM |
| O=C(CN1N=C(c2ccc(F)cc2)CCC1=O)Nc1nc2ccccc2s1 | 0.235 µM | 0.607 µM | 0.583 µM | 1.76 µM | 46.9 µM | > 100 µM | 6.75 µM | 66 µM | > 73.5 µM | > 100 µM | 7.61 µM | 31.5 µM | 2.14 µM | – | 9.82 µM | > 100 µM | > 100 µM | > 100 µM | 7.62 µM | > 100 µM |
| C[C@@H]1Cc2cc(O)ccc2[C@H]2CC[C@]3(C)/C(=C/COCCN(C)C)CC[C@H]3[C@H]12 (tested in a mixture with another compound) | 0.198 µM | 0.618 µM | 0.213 µM | 0.578 µM | 0.245 µM | 0.78 µM | 0.0822 µM | 0.436 µM | 0.268 µM | 0.875 µM | 0.0833 µM | 0.487 µM | 0.271 µM | 0.771 µM | 0.233 µM | 1.3 µM | 0.122 µM | 0.679 µM | 0.25 µM | 0.625 µM |
| O=C(NNS(=O)(=O)c1ccc(Cl)cc1Cl)c1cccnc1Nc1ccc(Cl)cc1 | 19.6 µM | 49.4 µM | 19.8 µM | 58.7 µM | 15.5 µM | 28.8 µM | 17.8 µM | 41.8 µM | 27.3 µM | 81.7 µM | 19.6 µM | 58.2 µM | 28.7 µM | > 100 µM | 23.4 µM | 80.4 µM | 10.8 µM | 50.7 µM | 22 µM | 75.4 µM |
| COc1ccc(C(=O)/C=C/c2ccc(OCC#N)cc2)cc1 | – | > 100 µM | – | 42 µM | – | 24.6 µM | – | > 100 µM | – | 59.3 µM | – | 77.1 µM | – | > 100 µM | – | > 100 µM | – | 46 µM | – | > 10 µM |
| CSc1ccc(C2=NN(C(C)=O)C(c3ccc(-c4ccc(Cl)cc4)o3)C2)cc1 (centres undefined) | 38.8 µM | > 100 µM | 31.1 µM | > 100 µM | 18.7 µM | > 100 µM | 49.8 µM | > 100 µM | 29.2 µM | > 100 µM | 16.4 µM | 97.3 µM | 32.9 µM | > 100 µM | 20.1 µM | > 100 µM | 17.9 µM | 79.6 µM | 20.1 µM | > 100 µM |
| C[C@@H]1O[C@@H](O[C@@H]2[C@@H](O)[C@H](OCCc3ccc(O)c(O)c3)O[C@H](CO)[C@H]2OC(=O)/C=C/c2ccc(O)c(O)c2)[C@H](O)[C@H](OC2OC[C@](O)(CO)[C@H]2O)[C@H]1O (some centres undefined) | 84.7 µM | > 100 µM | 24.8 µM | 42.5 µM | 30.4 µM | 65.4 µM | > 100 µM | > 100 µM | 17.5 µM | 34.6 µM | > 100 µM | > 100 µM | > 100 µM | > 100 µM | 7.41 µM | > 100 µM | > 100 µM | > 100 µM | > 100 µM | > 100 µM |
